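Results reflect a 48-hour exposure of cells in 96-well plates to compound at five concentrations. Here, GI50 denotes the concentration required for 50% inhibition of growth.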 Activity calls are given as the source filed them. Cut-off read from the data, not from the text of the source: active = GI50 up to about 1.1 µM and inactive = higher.
Columns and labels:
Test in all cases: DTP human tumour cell line panel, 48 h
786-0 = system: 786-0
A498 = system: A498
ACHN = system: ACHN
CAKI-1 = system: CAKI-1
CCRF-CEM = system: CCRF-CEM
DU-145 = system: DU-145
EKVX = system: EKVX
HCC 2998 = system: HCC 2998
HCT-116 = system: HCT-116
HCT-15 = system: HCT-15
HL-60 = system: HL-60
HOP-62 = system: HOP-62
HOP-92 = system: HOP-92
HT-29 = system: HT-29
Hs-578T = system: Hs-578T
IGROV-1 = system: IGROV-1
K562 = system: K562
KM12 = system: KM12
LOX IMVI = system: LOX IMVI
M14 = system: M14
MCF7 = system: MCF7
MDA-MB-231 = system: MDA-MB-231
MDA-MB-435 = system: MDA-MB-435
MDA-N = system: MDA-N
MOLT-4 = system: MOLT-4
NCI-H226 = system: NCI-H226
NCI-H23 = system: NCI-H23
NCI-H460 = system: NCI-H460
NCI-H522 = system: NCI-H522
NCI/ADR-RES = system: NCI/ADR-RES
OVCAR-3 = system: OVCAR-3
OVCAR-4 = system: OVCAR-4
OVCAR-5 = system: OVCAR-5
OVCAR-8 = system: OVCAR-8
PC-3 = system: PC-3
RPMI-8226 = system: RPMI-8226
RXF 393 = system: RXF 393
SF-268 = system: SF-268
SF-295 = system: SF-295
SF-539 = system: SF-539
SK-MEL-28 = system: SK-MEL-28
SK-MEL-2 = system: SK-MEL-2
SK-MEL-5 = system: SK-MEL-5
SK-OV-3 = system: SK-OV-3
SR = system: SR
SW-620 = system: SW-620
T47D = system: T47D
TK-10 = system: TK-10
U-251 = system: U-251
UACC-257 = system: UACC-257
UO-31 = system: UO-31
A549 = system: A549
COLO 205 = system: COLO 205
Malme-3M = system: Malme-3M
SN12C = system: SN12C
SNB-19 = system: SNB-19
SNB-75 = system: SNB-75
UACC-62 = system: UACC-62

CC1=NN(c2cccc(Cl)c2)C2(SCC(=O)N2c2nc3ccccc3s2)/C1=C\c1ccc(Cl)cc1 (stereo not drawn)
GI50 (786-0): 21.6 µM (inactive) | GI50 (A498): 17.3 µM (inactive) | GI50 (ACHN): 19.2 µM (inactive) | GI50 (CAKI-1): 18.3 µM (inactive) | GI50 (CCRF-CEM): 0.272 µM (active) | GI50 (DU-145): 18.4 µM (inactive) | GI50 (EKVX): 33.5 µM (inactive) | GI50 (HCC 2998): 14.5 µM (inactive) | GI50 (HCT-116): 16.3 µM (inactive) | GI50 (HCT-15): 13.9 µM | GI50 (HL-60): 11.8 µM (inactive) | GI50 (HOP-62): 18 µM (inactive) | GI50 (HOP-92): 13.4 µM (inactive) | GI50 (HT-29): 19.4 µM (inactive) | GI50 (Hs-578T): 19.4 µM (inactive) | GI50 (IGROV-1): 15 µM (inactive) | GI50 (K562): 14.4 µM (inactive) | GI50 (KM12): 15.4 µM (inactive) | GI50 (LOX IMVI): 20.8 µM (inactive) | GI50 (M14): 19.8 µM (inactive) | GI50 (MCF7): 22.2 µM (inactive) | GI50 (MDA-MB-231): 25.5 µM (inactive) | GI50 (MDA-MB-435): 19.9 µM (inactive) | GI50 (MDA-N): 25.7 µM (inactive) | GI50 (MOLT-4): 4.34 µM (inactive) | GI50 (NCI-H226): 23.8 µM (inactive) | GI50 (NCI-H23): 18.4 µM (inactive) | GI50 (NCI-H460): 15.8 µM (inactive) | GI50 (NCI-H522): 20.3 µM (inactive) | GI50 (NCI/ADR-RES): 38.8 µM (inactive) | GI50 (OVCAR-3): 16.8 µM (inactive) | GI50 (OVCAR-4): 17.3 µM (inactive) | GI50 (OVCAR-5): 20.2 µM (inactive) | GI50 (OVCAR-8): 18.9 µM (inactive) | GI50 (PC-3): 15.7 µM (inactive) | GI50 (RPMI-8226): 15.6 µM (inactive) | GI50 (RXF 393): 20.4 µM (inactive) | GI50 (SF-268): 17.9 µM (inactive) | GI50 (SF-295): 17 µM (inactive) | GI50 (SF-539): 26.2 µM (inactive) | GI50 (SK-MEL-28): 24.5 µM (inactive) | GI50 (SK-MEL-2): 16.7 µM (inactive) | GI50 (SK-MEL-5): 13.8 µM (inactive) | GI50 (SK-OV-3): 21.5 µM (inactive) | GI50 (SR): 2.81 µM (inactive) | GI50 (SW-620): 14.4 µM (inactive) | GI50 (T47D): 24.8 µM (inactive) | GI50 (TK-10): 30.2 µM (inactive) | GI50 (U-251): 13.8 µM (inactive) | GI50 (UACC-257): 21.6 µM (inactive) | GI50 (UO-31): 15.1 µM (inactive)

COCCOCc1nc(C#N)c(N)o1
GI50 (786-0): > 100 µM (inactive) | GI50 (A498): > 100 µM (inactive) | GI50 (A549): > 100 µM (inactive) | GI50 (ACHN): > 100 µM (inactive) | GI50 (CAKI-1): > 100 µM (inactive) | GI50 (CCRF-CEM): > 100 µM (inactive) | GI50 (COLO 205): > 100 µM (inactive) | GI50 (DU-145): > 100 µM (inactive) | GI50 (EKVX): > 100 µM (inactive) | GI50 (HCC 2998): > 100 µM (inactive) | GI50 (HCT-116): > 100 µM (inactive) | GI50 (HCT-15): > 100 µM | GI50 (HL-60): > 100 µM (inactive) | GI50 (HOP-62): > 100 µM (inactive) | GI50 (HOP-92): > 100 µM (inactive) | GI50 (HT-29): > 100 µM (inactive) | GI50 (Hs-578T): > 100 µM (inactive) | GI50 (IGROV-1): > 100 µM (inactive) | GI50 (K562): > 100 µM (inactive) | GI50 (KM12): > 100 µM (inactive) | GI50 (LOX IMVI): > 100 µM (inactive) | GI50 (M14): > 100 µM (inactive) | GI50 (MCF7): > 100 µM (inactive) | GI50 (MDA-MB-231): > 100 µM (inactive) | GI50 (MDA-MB-435): > 100 µM (inactive) | GI50 (MDA-N): > 100 µM (inactive) | GI50 (MOLT-4): > 100 µM (inactive) | GI50 (Malme-3M): > 100 µM (inactive) | GI50 (NCI-H226): > 100 µM (inactive) | GI50 (NCI-H23): > 100 µM (inactive) | GI50 (NCI-H460): > 100 µM (inactive) | GI50 (NCI-H522): > 10 µM (inactive) | GI50 (NCI/ADR-RES): > 100 µM (inactive) | GI50 (OVCAR-3): > 100 µM (inactive) | GI50 (OVCAR-4): > 100 µM (inactive) | GI50 (OVCAR-5): > 100 µM (inactive) | GI50 (PC-3): > 100 µM (inactive) | GI50 (RPMI-8226): > 100 µM (inactive) | GI50 (RXF 393): > 100 µM (inactive) | GI50 (SF-268): > 100 µM (inactive) | GI50 (SF-295): > 100 µM (inactive) | GI50 (SF-539): > 100 µM (inactive) | GI50 (SK-MEL-28): > 100 µM (inactive) | GI50 (SK-MEL-2): > 100 µM (inactive) | GI50 (SK-MEL-5): > 100 µM (inactive) | GI50 (SK-OV-3): > 100 µM (inactive) | GI50 (SN12C): > 100 µM (inactive) | GI50 (SNB-19): > 100 µM (inactive) | GI50 (SNB-75): > 100 µM (inactive) | GI50 (SR): > 100 µM (inactive) | GI50 (SW-620): > 100 µM (inactive) | GI50 (T47D): > 100 µM (inactive) | GI50 (TK-10): > 100 µM (inactive) | GI50 (U-251): > 100 µM (inactive) | GI50 (UACC-257): > 100 µM (inactive) | GI50 (UACC-62): > 100 µM (inactive) | GI50 (UO-31): > 100 µM (inactive)
